This is an account of results in patent US7541381B2, “Non-covalent inhibitors of AmpC β-lactamase” (Northwestern University, priority 2002, dated 2009).

Values after ≈ are worked out from the molar mass of the structure shown. “Also recorded” adds a separate entry of the source.

The term Ki denotes the dissociation constant of the complex between target and ligand, obtained from inhibition or displacement. For orientation: IC50 means the concentration at which inhibition is half-maximal. A word on the Km: it is the concentration of substrate that gives half-maximal velocity.

Assay [1] addresses T1, AmpC β-lactamase (Escherichia coli, UniProt P00811).
T1 construct: made in house
The assay can be described thus: biochemical. Type of assay: biochemical. The conditions noted are these: for Ki: 50 mM TRIS pH 7.0, nitrocefin substrate, progress curve analysis; for change of AmpC inhibition/binding relative to compound 1: analogs of 1. As to the method:
Enzymology. AmpC from Escherichia coli was expressed and purified to homogeneity as described in the literature. […] All were used without further purification. Kinetic measurements with AmpC were performed in 50 mM TRIS buffer, pH 7.0, using nitrocefin as a substrate. […] Reactions were initiated by the addition of 0.875 nM enzyme and monitored in methacrylate cuvettes. […] Ki values for the compounds were obtained by comparison of progress curves in the presence and absence of inhibitor.

Assay [2] deals with JM109 E. coli expressing AmpC. The assay can be described thus: Antimicrobial susceptibility testing (MIC), AmpC-expressing strain. Type of assay: cell-based. As to the method:
(§1) Antimicrobial experiments. Susceptibility testing was performed and interpreted following the guidelines of the National Committee for Clinical Laboratory Standards. To test the inhibitory activity of 1, the compound was dissolved in 50% DMSO and dilutions were performed using Luria Broth growth medium.

Assay [3] relates to JM109 that does not express AmpC. Briefly: Antimicrobial susceptibility testing (MIC), strain without AmpC. The conditions noted are these: Escherichia coli, read-out: MIC of ampicillin in JM109 that does not express AmpC. Type of assay: cell-based, E. coli. As to the method:
as §1

Assay [4] concerns the target T2, elastase (Sus scrofa, UniProt P00772).
T2 construct: purchased Sigma (St. Louis, Mo.); host or cells: porcine pancreas
The assay can be described thus: elastase selectivity counter-screen. Type of assay: biochemical, porcine. As to the method: (§2) The substrates for α-chymotrypsin (succinyl-ala-ala-pro-phe-p-nitroanilide) and β-trypsin (N-benzoyl-L-arginine ethyl ester, BAEE) were also purchased from Sigma. The elastase substrate used (elastase substrate 1, MeOSuc-Ala-Ala-Pro-Val-pNA) was purchased from Calbiochem (San Diego, Calif.). Substrates were diluted from 10 mM DMSO stock solutions, and all reactions were performed in 50 mM TRIS buffer, pH 7.0, 25° C. For α-chymotrypsin, 200 μM of substrate was used; the reactions were initiated by addition of 10 μL of a 0.1 mg/ml enzyme stock solution and monitored at 410 nm. For β-trypsin, 200 μM of BAEE was used, the reactions were initiated by the addition of 5 μL of a 0.2 mg/ml enzyme stock solution, and monitored at 260 nm. For elastase, 640 μM of elastase substrate was used, the reactions were initiated by the addition of 30 μL of a 0.2 mg/mL enzyme stock solution, and monitored at 385 nm. Initial rate fits to the absorbance data for the first 150 seconds of each reaction were used to determine reaction velocities.

Assay [5] addresses T3, α-chymotrypsin (Bos taurus, UniProt P00766).
T3 construct: purchased Sigma (St. Louis, Mo.); host or cells: bovine pancreas
Briefly: biochemical. Also on record: species or system bovine. The settings on record: 200 μM substrate, 50 mM TRIS pH 7.0, 25° C. As for the experimental part: as §2

For assay [6], the system named is related serine amidases. Briefly: Counter-screens against related serine amidases. Type of assay: biochemical. As for the experimental part: as §2
Background: A counterscreen serves to expose hits that act by an unwanted route or on another target.

The target in assay [7] is T4, β-trypsin (Bos taurus, UniProt P00760).
T4 construct: β-trypsin (bovine pancreatic); purchased Sigma (St. Louis, Mo.); host or cells: bovine pancreas
Briefly: biochemical. Type of assay: biochemical, bovine. As for the experimental part:
as §2

T1 sequence (P00811 20-377): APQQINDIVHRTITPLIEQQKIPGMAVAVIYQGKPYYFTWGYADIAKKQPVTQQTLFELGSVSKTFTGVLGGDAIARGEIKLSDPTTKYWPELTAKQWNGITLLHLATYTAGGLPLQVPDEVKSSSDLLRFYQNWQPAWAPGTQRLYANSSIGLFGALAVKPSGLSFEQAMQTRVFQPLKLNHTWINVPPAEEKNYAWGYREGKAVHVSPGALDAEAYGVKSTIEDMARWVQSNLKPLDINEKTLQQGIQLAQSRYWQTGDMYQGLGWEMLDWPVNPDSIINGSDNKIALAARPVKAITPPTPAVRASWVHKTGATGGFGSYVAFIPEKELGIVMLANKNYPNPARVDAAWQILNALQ
T4 sequence (P00760 24-246): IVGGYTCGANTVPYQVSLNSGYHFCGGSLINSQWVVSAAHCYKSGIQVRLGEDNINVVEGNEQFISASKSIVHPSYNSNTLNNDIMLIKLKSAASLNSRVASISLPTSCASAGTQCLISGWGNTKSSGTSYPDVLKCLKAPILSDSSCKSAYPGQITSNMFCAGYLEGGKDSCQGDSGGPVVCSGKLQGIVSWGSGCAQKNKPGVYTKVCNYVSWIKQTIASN
T2 sequence (P00772 27-266): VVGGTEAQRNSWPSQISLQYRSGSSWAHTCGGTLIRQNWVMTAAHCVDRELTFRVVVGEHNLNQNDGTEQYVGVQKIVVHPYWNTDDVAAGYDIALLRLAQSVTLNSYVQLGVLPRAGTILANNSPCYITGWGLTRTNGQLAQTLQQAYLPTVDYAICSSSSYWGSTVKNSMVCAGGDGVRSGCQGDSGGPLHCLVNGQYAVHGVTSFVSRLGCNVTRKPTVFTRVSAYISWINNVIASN

As for “3-([4-[3-chloro-5-(trifluoromethyl)pyridin-2-yl]piperazino]sulfonyl)thiophene-2-carboxylate [Compound 6]”, in assay [1], the inhibitory constant (Ki) was above 100 µM and the “change of AmpC inhibition/binding relative to compound 1” value is on record as “hindered binding”.
Consider `CC1(C)S[C@@H]2[C@H](NC(=O)[C@H](N)c3ccccc3)C(=O)N2[C@H]1C(=O)O` [Ampicillin, ampicillin, reference compound], for which the MIC in assay [2] (Escherichia coli, read-out: MIC JM109/AmpC) was found to be 512 µg/mL (≈ 1470 µM); in assay [3], 4 µg/mL.
As for `O=C(O)c1sccc1S(=O)(=O)Nc1ccc(Cl)cc1` [Compound 1, 3-[(4-chloroanilino)sulfonyl]thiophene-2-carboxylic acid], the half-maximal inhibitory concentration (IC50) was above 4000 µM in assay [4] (640 μM elastase substrate, 50 mM TRIS pH 7.0, 25° C.); above 1200 µM in assay [5]; above 4000 µM in assay [7] (200 μM BAEE, 50 mM TRIS pH 7.0, 25° C.). Further, the inhibition of elastase result in assay [4] (at concentrations up to 4 mM) is on record as “no inhibition”. Moreover, the “inhibition of related serine amidases in counter-screens” value in assay [6] is on record as “did not inhibit”. In assay [2] (at the concentration used in the ampicillin combination), the “antibiotic activity of compound alone” value is “no measurable antibiotic activity”. Further, the “increase in efficacy of ampicillin” value in assay [2] (bacterial cell culture, resistant strain) is “four-fold”. Further, the “minimum inhibitory concentration (MIC) of ampicillin in the presence of the compound” value in assay [2] (resistant strain overexpressing β-lactamase) came to 128 µg/mL. Further, the “mode of inhibition of AmpC” value in assay [1] is “competitive, non-covalent inhibitor; also recorded: competitive, reversible inhibitor”. Besides, in assay [1], the Ki turned out to be 23 µM. Moreover, in assay [7] (at concentrations up to 4 mM), the inhibition of trypsin result is reported as “no inhibition”.
In assay [1], `O=S(=O)(O)CCCSc1nc2ccccc2s1` [Compound 2, 3-(2-benzothiazolylthio)-1-propanesulfonic acid] showed a Ki of 318 µM.
Still for that read-out and setting: the value for `O=C(O)CCSc1nc2ccccc2s1` [Compound 3, 3-(2-benzothiazolylthio)propionic acid] was 646 µM.
Regarding `Cc1ccc(S(=O)(=O)Nc2csc(C)c2C(=O)O)cc1` [Compound 4, 2-methyl-4-[[(4-methylphenyl)sulfonyl]amino]thiophene-3-carboxylic acid], in assay [1], the affinity, expressed as Ki, was 60 µM and the “change of AmpC inhibition/binding relative to compound 1” value was “diminished inhibition three-fold; also recorded: reduced binding by three-fold”.
The like results for `COC(=O)c1sccc1S(=O)(=O)Nc1ccc(Cl)cc1` [Compound 5, methyl 3-[(4-chloroanilino)sulfonyl]thiophene-2-carboxylate] were, in that order, above 100 µM and “compromised inhibition; also recorded: binding was somewhat problematic”.
The corresponding values for `O=C(O)c1sccc1S(=O)(=O)Nc1ccccc1N1CCCCC1` [Compound 7, 3-[(2-piperidinoanilino)sulfonyl]thiophene-2-carboxylic acid] are 14 µM and “slight improvement in affinity”.
`Cc1oc(C)c(S(=O)(=O)Nc2cccs2)c1C(=O)O` [Compound 8, 2,5-dimethyl-4-(2-thienylaminosulfonyl)furan-3-carboxylic acid] showed a Ki in assay [1] of 64 µM. This counts as double-digit micromolar.
`COc1ccc(NS(=O)(=O)c2ccccc2[N+](=O)[O-])cc1` [Compound 9, N-(4-methoxyphenyl)-2-nitro-benzenesulfonamide]: in assay [1], the Ki was above 100 µM and the “change of AmpC inhibition/binding relative to compound 1” value is listed as “compromised inhibition; also recorded: binding was somewhat problematic”.
For `O=C(Cc1cccs1)N[C@@H]1C(=O)N2C(C(=O)O)=C(/C=C/c3ccc([N+](=O)[O-])cc3[N+](=O)[O-])CS[C@H]12` [nitrocefin, reference compound], in assay [1] (read-out: Km of nitrocefin for AmpC, 50 mM TRIS buffer, pH 7.0), the Km amounted to 127 µM.
